Reference: patent publication US6962930B1, “Compounds, compositions and method suitable for amelioration of withdrawal syndromes and withdrawal-induced brain damage” (Lohocla Research Corporation, priority 1997, dated 2005)

Columns and labels:
naive Swiss-Webster mice = assay: Elevated plus-maze; format: in vivo; details: 100 or 500 mg/kg
Protocol: The anxiolytic effect of the DCUK-OMe was studied in naive Swiss-Webster mice using an elevated plus-maze apparatus. The plus-shaped maze consists of two arms which are open to the environment (about 30×5 cm) and two arms with side and end walls (about 30×5×15 cm). The arms are connected to a central area (about 5×5 cm) and the plus-maze is elevated from the floor to a height of about 50 cm.
All tests were conducted in a sound-attenuated room under low intensity light (25 Watt). […] A trained observer blind to the treatment conditions scored the number of entries into open arms, the number of entries into closed arms, the number of entries into the central area, the number of rears, and the number of grooming episodes over a 5-minute period. […] The percentage open arm entries was calculated for each animal and used as a measure of the anxiolytic/anxiogenic effects of drug treatment. In addition, the total number of entries made into either open or closed arms was recorded as a measure of drug effects on locomotor activity.
Mice were injected with either vehicle (5% Tween-80, 20% Intralipid) or 100 mg/kg or 500 mg/kg DCUK-OMe suspended in the vehicle about 90 minutes before testing in the plus-maze apparatus. Data were expressed as the percent increase in open arm entries of the drug treated animals compared to vehicle-injected mice. […] Data were analyzed using a one-way ANOVA on ranks. […]

[1] = test system: audiogenic seizures in DBA/2J mice; assay: Audiogenic seizures; format: in vivo; details: 100 or 500 mg/kg, about 90 minutes before stimulus
Protocol: Male DBA/2J mice (20–22 days old; 8–12 g) were used to evaluate the effects of DCUK-OMe in an animal model of partial seizures. A description of this test for audiogenic seizures can be found in Engstrom, F. L., et al., “SEIZURE SUSCEPTIBILITY IN DBA AND C57 MICE: THE EFFECTS OF VARIOUS CONVULSANTS,” Epilepsia., 29 389–395 (1988), the relevant disclosures of which are incorporated herein by reference. Mice were injected with either vehicle (5% Tween-80, 20% Intralipid) or 100 mg/kg or 500 mg/kg DCUK-OMe suspended in the vehicle about 90 minutes before being placed into a testing chamber having a size of about 6 inches (about 15.2 cm) diameter×about 20 inches (about 50.8 cm) height enclosed in a sound-attenuated box. After a 15–20 second habituation period, a high-intensity auditory stimulus (ringing doorbell, 12–16 kHz, 109 db) was activated for 30 seconds or until tonic hindlimb extension occurred. The seizure response in these mice was characterized by a progression of a wild running behavior, followed by loss of righting and clonus of the forelimbs, followed by tonic hindlimb extension, and finally respiratory arrest. The number of mice showing each response was recorded. […] Data were analyzed by the Fisher Exact Test. In FIG. 8, * denotes P<0.05 compared to vehicle injected mice.

[2] = target: T1, NR1a/NR2A recombinant receptors (Homo sapiens, UniProt Q05586); assay: NMDA-induced currents in oocytes expressing NR1a/NR2A; format: cell-based; details: 100 μM NMDA, 50 μM DCUKA, increasing glycine up to 100 μM
T1 construct: expressed in transfected cells; host or cells: Xenopus laevis oocytes, nuclear cDNA injection
Protocol: Oocytes were obtained from Xenopus laevis frogs (Nasco or Xenopus I) kept in aquarium tanks at 19–21° C., on a 12 hr light/dark cycle. Mature females were anesthetized by immersion for approximately 30 min in a 0.12% 3-aminobenzoic acid ethyl ester solution, a small incision was made in the abdominal wall and a piece of ovary was removed and placed in Modified Barth's solution (MBS; in mM) containing 88 NaCl, 1 KCl, 10 HEPES, 0.82 MgSO4, 2.4 NaHCO3, 0.91 CaCl2, 0.33 Ca(NO3)2 (pH 7.5). To facilitate manual dissection of oocytes, a section of ovary was transferred from MBS to a hypertonic buffer containing 108 mM NaCl, 2 mM KCl, 2 mM EDTA, 10 mM HEPES, pH 7.5 and theca and epithelial layers of mature oocytes (stages V and VI) were removed with surgical forceps. The follicular layer was removed by a 10 min immersion in 0.5 mg/ml of collagenase in buffer containing 83 mM NaCl, 2 mM KCl, 1 mM MgCl2 and 5 mM HEPES.
Human NR1a, NR2A and NR2B cDNAs in pCDNA-1Amp were transformed and amplified in XL-1 Blue cells and purified with the MaxPrep Qiagen kit. Oocytes were injected with cDNA into the nucleus in the following concentrations: NR1a/2A cDNAs 0.75 ng/30 nl 1:1 ratio, NR1a/2B cDNAs 3.0 ng/30 nl: 1:1 ratio. Injections were made with micropipettes (10 μm tip diameter) connected to a Drummond micropipettor attached to a micromanipulator. After injection, oocytes were individually placed in wells of 96-well microtiter plates containing incubation medium (MBS supplemented with 10 mg/l streptomycin, 10,000 U/l penicillin G, 50 mg/l gentamicin, 2 mM sodium pyruvate, 0.5 mM theophylline) that had been sterilized by passage through a […]. Oocytes were incubated at 19° C. for 2 to 4 days after injection.
Oocytes were placed in a rectangular chamber (approximately […]) and perfused (2 ml/min) with frog Ringer (in mM) containing 115 NaCl, 2.5 KCl, 1.8 CaCl2, 10 HEPES (pH 7.2). […] Control responses were always measured before and after addition of the DCUKA. […] Data are expressed as the % inhibition of the agonist response obtained in the absence of the drug.

Compound	open arm entries (anxiolytic effect) (naive Swiss-Webster mice; about 90 minutes before testing)	total arm entries (locomotor activity) (naive Swiss-Webster mice; compared to vehicle)	frequency of clonic audiogenic seizures [1]	reversal by glycine of inhibition of NMDA-induced currents [2]
COC(=O)c1cc(NC(=O)N(c2ccccc2)c2ccccc2)c2c(Cl)cc(Cl)cc2n1 [DCUK-OMe, (N,N-diphenyl)-4-ureido-5,7-dichloro-2-carboxy-quinoline methyl ester]	has anxyolitic activity	did not show any increase in total arm entries	suppression of audiogenic seizures	–
O=C(O)c1cc(NC(=O)N(c2ccccc2)c2ccccc2)c2c(Cl)cc(Cl)cc2n1 [DCUKA, (N,N-diphenyl)-4-ureido-5,7-dichloro-2-carboxy-quinoline]	–	–	–	could not be overcome by glycine, even at a 100 μM concentration
